From patent US11648315B2, “Silvestrol antibody-drug conjugates and methods of use” (Genentech, Inc., priority 2016, dated 2023) come the findings set out here.

What all share (format): cell-based
One assay has as its system NCI-H1781. The assay is described as follows: In vitro efficacy of free drug silvestrol compounds, NCI-H1781. The settings on record: NCI-H1781 cell line. The source says: (§1) The CellTiter-Glo® Luminescent Cell Viability Assay is a commercially available (Promega Corp., Madison, Wis.), homogeneous assay method based on the recombinant expression of Coleoptera luciferase (U.S. Pat. Nos. 5,583,024; 5,674,713; 5,700,670). This cell proliferation assay determines the number of viable cells in culture based on quantitation of the ATP present, an indicator of metabolically active cells (Crouch et al (1993) J. Immunol. Meth. 160:81-88; U.S. Pat. No. 6,602,677). The CellTiter-Glo® Assay was conducted in 96 well format, making it amenable to automated high-throughput screening (HTS) (Cree et al (1995) AntiCancer Drugs 6:398-404). The homogeneous assay procedure involves adding the single reagent (CellTiter-Glo® Reagent) directly to cells cultured in serum-supplemented medium. […]
(§2) Inhibition of cell proliferation in vitro may be assayed using the CellTiter-Glo™ Luminescent Cell Viability Assay, an embodiment of which is detailed as Example 6. Such assay determines the number of viable cells in culture based on quantitation of ATP present, which is an indication of metabolically active cells (Crouch et al. (1993) J. Immunol. Meth. 160:81-88; U.S. Pat. No. 6,602,677). […] Data can be recorded by luminometer or CCD camera imaging device. The luminescence output is expressed as relative light units (RLU).

A further assay relates to cell lines of Table 7. Kind of assay: In vitro efficacy of free drug silvestrol compounds, summary over cell lines of Table 7. The settings on record: summary of Table 7. An excerpt: The CellTiter-Glo® Luminescent Cell Viability Assay is a commercially available (Promega Corp., Madison, Wis.), homogeneous assay method based on the recombinant expression of Coleoptera luciferase (U.S. Pat. Nos. 5,583,024; 5,674,713; 5,700,670). This cell proliferation assay determines the number of viable cells in culture based on quantitation of the ATP present, an indicator of metabolically active cells (Crouch et al (1993) J. Immunol. Meth. 160:81-88; U.S. Pat. No. 6,602,677). The CellTiter-Glo® Assay was conducted in 96 well format, making it amenable to automated high-throughput screening (HTS) (Cree et al (1995) AntiCancer Drugs 6:398-404). The homogeneous assay procedure involves adding the single reagent (CellTiter-Glo® Reagent) directly to cells cultured in serum-supplemented medium. Cell washing, removal of medium and multiple pipetting steps are not required. The system detects as few as 15 cells/well in a 384-well format in 10 minutes after adding reagent and mixing. The cells may be treated continuously with ADC, or they may be treated and separated from ADC.
Inhibition of cell proliferation in vitro may be assayed using the CellTiter-Glo™ Luminescent Cell Viability Assay, an embodiment of which is detailed as Example 6. Such assay determines the number of viable cells in culture based on quantitation of ATP present, which is an indication of metabolically active cells (Crouch et al. (1993) J. Immunol. Meth. 160:81-88; U.S. Pat. No. 6,602,677). The assay may be conducted in 96- or 384-well format, making it amenable to automated high-throughput screening (HTS). See Cree et al. (1995) AntiCancer Drugs 6:398-404. The assay procedure involves adding a single reagent (CellTiter-Glo® Reagent) directly to cultured cells. […] The luminescent signal is proportional to the amount of ATP present, which is directly proportional to the number of viable cells present in culture. Data can be recorded by luminometer or CCD camera imaging device. The luminescence output is expressed as relative light units (RLU). […]

In another assay the test system is HCC1569 X2. The assay is described as follows: In vitro efficacy of free drug silvestrol compounds, HCC1569 X2. The following applies: Homo sapiens; HCC1569 X2 cell line.
Excerpt: as §1
Inhibition of cell proliferation in vitro may be assayed using the CellTiter-Glo™ Luminescent Cell Viability Assay, an embodiment of which is detailed as Example 6. Such assay determines the number of viable cells in culture based on quantitation of ATP present, which is an indication of metabolically active cells (Crouch et al. (1993) J. Immunol. Meth. 160:81-88; U.S. Pat. No. 6,602,677). […] Data can be recorded by luminometer or CCD camera imaging device. The luminescence output is expressed as relative light units (RLU). […]

In a further assay the test system is BJAB. Kind of assay: In vitro efficacy of free drug silvestrol compounds, BJAB. The settings on record: Homo sapiens; BJAB cell line.
Excerpt: as §1, §2

A further assay concerns SW 900. The assay is described as follows: In vitro efficacy of free drug silvestrol compounds, SW 900. The settings on record: Homo sapiens, SW900; SW 900 cell line.
Excerpt: as §1, §2

In the next assay the test system is HCC1937. Kind of assay: In vitro efficacy of free drug silvestrol compounds, HCC1937. The settings on record: Homo sapiens; HCC1937 cell line.
Excerpt: as §1, §2

The test system of the next assay is KPL-4 cells. Kind of assay: In vitro cell viability (CellTiter-Glo), KPL-4 cells. The settings on record: Homo sapiens, KPL4; KPL-4 cell line; read-out: IC50 (nM) free drug. The protocol: (§3) Generally, the cytotoxic or cytostatic activity of an antibody-drug conjugate (ADC) is measured by: exposing mammalian cells having receptor proteins, e.g. HER2, to the antibody of the ADC in a cell culture medium; culturing the cells for a period from about 6 hours to about 5 days; and measuring cell viability. Cell-based in vitro assays were used to measure viability (proliferation), cytotoxicity, and induction of apoptosis (caspase activation) of the ADC of the invention.
(§4) The CellTiter-Glo® Luminescent Cell Viability Assay is a commercially available (Promega Corp., Madison, Wis.), homogeneous assay method based on the recombinant expression of Coleoptera luciferase (U.S. Pat. Nos. 5,583,024; 5,674,713; 5,700,670). This cell proliferation assay determines the number of viable cells in culture based on quantitation of the ATP present, an indicator of metabolically active cells (Crouch et al (1993) J. Immunol. Meth. 160:81-88; U.S. Pat. No. 6,602,677). […]
(§5) Inhibition of cell proliferation in vitro may be assayed using the CellTiter-Glo™ Luminescent Cell Viability Assay, an embodiment of which is detailed as Example 6. Such assay determines the number of viable cells in culture based on quantitation of ATP present, which is an indication of metabolically active cells (Crouch et al. (1993) J. Immunol. Meth. 160:81-88; U.S. Pat. No. 6,602,677). […]
(ATP-based viability assays read luminescence as a measure of living cells.)

Another assay relates to T-47D. The assay is described as follows: In vitro efficacy of free drug silvestrol compounds, T-47D. The following applies: Homo sapiens, T47D; T-47D cell line.
Excerpt: as §1, §2

In a further assay the test system is MES-SA. The assay is described as follows: In vitro efficacy of free drug silvestrol compounds, MES-SA. The settings on record: Homo sapiens; MES-SA cell line.
Excerpt: as §1, §2

Another assay concerns SK-BR-3 cells. The assay is described as follows: In vitro cell viability (CellTiter-Glo), SK-BR-3 cells. The settings on record: Homo sapiens, read-out: IC50 free drug. The method, then:
as §3, §4, §5

The subject of the next assay is MES-SA/Dx5. The assay is described as follows: In vitro efficacy of free drug silvestrol compounds, MES-SA/Dx5. The settings on record: Homo sapiens; MES-SA/Dx5 cell line.
Excerpt: as §1, §2

Consider `COC(=O)[C@H]1[C@@H](O)[C@@]2(O)c3c(OC)cc(O[C@@H]4O[C@@H](CCN)CO[C@H]4OC)cc3O[C@@]2(c2ccc(OC)cc2)[C@@H]1c1ccccc1` [amino silvestrol analog, (1R,2R,3S,3aR,8bS)-methyl 6-(((2S,3R,6S)-6-(2-aminoethyl)-3-methoxy-1,4-dioxan-2-yl)oxy)-1,8b-dihydroxy-8-methoxy-3a-(4-methoxyphenyl)-3-phenyl-2,3,3a,8b-tetrahydro-1H-cyclopenta[b]benzofuran-2-carboxylate], for which the concentration for half-maximal inhibition (IC50) was determined as 1 nM with NCI-H1781; 1.3 nM with HCC1569 X2; 0.81 nM in the assay with BJAB; 2.9 nM with SW 900; 0.66 nM in the assay with HCC1937; 1.2 nM in the assay with KPL-4 cells. Besides, the IC50 in the assay with T-47D is 1 nM; in the assay with MES-SA, 1.1 nM; in the assay with SK-BR-3 cells, 1.6 nM; with MES-SA/Dx5, greater than 100 nM. Also, the “IC50s of free drug, in words” value in the assay on cell lines of Table 7 was “pM or low nM”. The “activity of free drug in vitro” value in the assay with cell lines of Table 7 is “active”.

Consider `COc1ccc([C@@]23Oc4cc(O[C@@H]5O[C@@H]([C@H](O)CO)CO[C@H]5OC)cc(OC)c4[C@]2(O)[C@H](O)[C@H](C(=O)NCCN)[C@H]3c2ccccc2)cc1` [silvestrol amine, (1R,2R,3S,3aR,8bS)-N-(2-aminoethyl)-6-(((2S,3R,6R)-6-((R)-1,2-dihydroxyethyl)-3-methoxy-1,4-dioxan-2-yl)oxy)-1,8b-dihydroxy-8-methoxy-3a-(4-methoxyphenyl)-3-phenyl-2,3,3a,8b-tetrahydro-1H-cyclopenta[b]benzofuran-2-carboxamide], for which the IC50 in the assay with NCI-H1781, in the assay with HCC1569 X2, in the assay with BJAB, with SW 900, in the assay with HCC1937 and in the assay with KPL-4 cells was greater than 200 nM in each case. Moreover, the IC50 was greater than 200 nM in the assay with T-47D, greater than 100 nM in the assay with MES-SA and greater than 200 nM in the assay on MES-SA/Dx5. In the assay on cell lines of Table 7, the “activity of free drug in vitro” value is “inactive”.

For orientation: IC50 means the midpoint of a concentration-inhibition curve.
